Source: patent US20230066946A1, “1,5-DIPHENYLPYRAZOLYL-3-OXYALKYL ACIDS AND 1-PHENYL-5-THIENYLPYRAZOLYL-3-OXYALKYL ACIDS AND THE USE THEREOF FOR CONTROL OF UNWANTED PLANT GROWTH” (Bayer Aktiengesellschaft, priority 2019, published 2023)

Columns and labels:
[1] = system: AMARE; assay: Post-emergence herbicidal action against AMARE; assay type: in vivo, Amaranthus retroflexus; details: 1280 g/ha, visual rating about 3 weeks after treatment
Method: (§1) [table] Seeds of mono- and dicotyledonous weed plants are placed in plastic pots in sandy loam soil (twin sowing with one species each of mono- or dicotyledonous weed plants per pot), covered with soil and cultivated in a greenhouse under controlled growth conditions. 2 to 3 weeks after sowing, the test plants are treated at the one-leaf stage. The compounds of the invention, formulated in the form of wettable powders (WP) or as emulsion concentrates (EC), are applied to the green parts of the plants as aqueous suspension or emulsion with addition of 0.5% additive at a water application rate equivalent to 600 litres per hectare. After the test plants have been kept in the greenhouse under optimum growth conditions for about 3 weeks, the activity of the preparations is rated visually in comparison to untreated controls. For example, 100% activity=the plants have died, 0% activity=like control plants. Tables 5.1-5.16 below show the effects of selected compounds of the general formula (I) according to Tables 1 to 3 on various harmful plants at an application rate corresponding to 1280 or 320 g/ha, which have been obtained by the aforementioned experimental method.

[2] = system: SETVI; assay: Pre-emergence herbicidal action against SETVI; assay type: in vivo, Setaria viridis; details: 1280 g/ha, scored visually after about 3 weeks vs untreated controls
Excerpt: (§2) Seeds of mono- and dicotyledonous weed plants are placed in plastic pots in sandy loam soil (doubly sown with one species each of mono- or dicotyledonous weed plants per pot) and covered with soil. The compounds of the invention, formulated in the form of wettable powders (WP) or as emulsion concentrates (EC), are then applied onto the surface of the covering soil as aqueous suspension or emulsion with addition of 0.5% additive at a water application rate equivalent to 600 litres per hectare. After the treatment, the pots are placed in a greenhouse and kept under good growth conditions for the trial plants. After about 3 weeks, the effect of the preparations is scored visually in comparison with untreated controls as percentages. For example, 100% activity=the plants have died, 0% activity=like control plants. [table] Tables 4.1-4.15 below show the effects of selected compounds of the general formula (I) according to Tables 1 to 3 on various harmful plants at an application rate corresponding to 1280 or 320 g/ha, which have been obtained by the aforementioned experimental method.

[3] = system: ECHCG; assay: Pre-emergence herbicidal action against ECHCG; assay type: in vivo, Echinochloa crus-galli; details: scored visually after about 3 weeks vs untreated controls, 100% = plants have died, 0% = like control plants
Excerpt: as §2

[4] = system: STEME; assay: Post-emergence herbicidal action against STEME; assay type: in vivo, Stellaria media; details: 1280 g/ha, visual rating about 3 weeks after treatment
Method: as §1

[5] = system: MATIN; assay: Post-emergence herbicidal action against MATIN; assay type: in vivo, Matricaria inodora; details: 1280 g/ha, visual rating about 3 weeks after treatment
Method: as §1

[6] = system: STEME; assay: Pre-emergence herbicidal action against STEME; assay type: in vivo, Stellaria media; details: 1280 g/ha, scored visually after about 3 weeks vs untreated controls
Excerpt: as §2

[7] = system: AMARE; assay: Pre-emergence herbicidal action against AMARE; assay type: in vivo, Amaranthus retroflexus; details: 1280 g/ha, scored visually after about 3 weeks vs untreated controls
Excerpt: as §2

With `O=C(COc1nn(-c2ccccc2)c(-c2ccc(F)cc2)c1Br)OCc1cccc(F)c1` [I-111] the “Post-emergence action against AMARE in %” value [1] was 100%, the “Pre-emergence action against SETVI in %” value [2] was 90% and the “Pre-emergence action at 1280 g/ha against ECHCG in %” value [3] was 100%. The “Post-emergence action against STEME in %” value [4] was 90%, the “Post-emergence action against MATIN in %” value [5] was 90% and the “Pre-emergence action against STEME in %” value [6] was 100%.
`CC(C)(Oc1nn(-c2ccccc2)c(-c2ccc(F)cc2)c1Br)C(=O)O` [I-140] was tested, and the “Pre-emergence action against SETVI in %” value [2] was 100%, the “Pre-emergence action at 1280 g/ha against ECHCG in %” value [3] was 90% and the “Post-emergence action against STEME in %” value [4] was 100%. The “Pre-emergence action against AMARE in %” value [7] was 90% and the “Pre-emergence action against STEME in %” value [6] was 100%.
With `CCOC(=O)COc1nn(-c2ccc(F)cc2)c(-c2ccc(F)cc2)c1Br` [I-076] the “Post-emergence action against AMARE in %” value [1] was 100%, the “Pre-emergence action against SETVI in %” value [2] was 100% and the “Pre-emergence action at 1280 g/ha against ECHCG in %” value [3] was 90%. The “Pre-emergence action against AMARE in %” value [7] was 100%, the “Post-emergence action against MATIN in %” value [5] was 90% and the “Pre-emergence action against STEME in %” value [6] was 100%.
With `O=C(O)COc1nn(-c2ccc(F)cc2)c(-c2cccc(F)c2)c1Br` [I-119] the “Post-emergence action against AMARE in %” value [1] was 100%, the “Pre-emergence action against SETVI in %” value [2] was 100% and the “Post-emergence action against STEME in %” value [4] was 90%. For the same compound, the “Pre-emergence action against AMARE in %” value [7] was 100%, the “Post-emergence action against MATIN in %” value [5] was 90% and the “Pre-emergence action against STEME in %” value [6] was 100%.
In the case of `O=C(COc1nn(-c2ccccc2)c(-c2ccc(F)cc2)c1Br)NCC1CC1` [III-005], the “Pre-emergence action against SETVI in %” value [2] is reported as 100%, the “Pre-emergence action at 1280 g/ha against ECHCG in %” value [3] is reported as 100% and the “Pre-emergence action against AMARE in %” value [7] is reported as 90%. The “Pre-emergence action against STEME in %” value [6] was 100%.
`C#CCNC(=O)COc1nn(-c2ccc(F)cc2)c(-c2cccc(F)c2)c1Br` [III-016] was tested, and the “Post-emergence action against AMARE in %” value [1] was 90%, the “Pre-emergence action against SETVI in %” value [2] was 100% and the “Pre-emergence action at 1280 g/ha against ECHCG in %” value [3] was 100%. The “Pre-emergence action against AMARE in %” value [7] was 100% and the “Pre-emergence action against STEME in %” value [6] was 100%.
For `COC(=O)COc1nn(-c2cccc(F)c2)c(-c2ccccc2)c1[N+](=O)[O-]` [I-122], the “Pre-emergence action at 1280 g/ha against ECHCG in %” value [3] was 100% and the “Pre-emergence action against AMARE in %” value [7] was 100%.
With `CCOC(=O)COc1nn(-c2ccccc2F)c(-c2ccc(F)c(F)c2)c1Br` [I-133] the “Post-emergence action against AMARE in %” value [1] was 90%, the “Pre-emergence action against SETVI in %” value [2] was 100% and the “Pre-emergence action at 1280 g/ha against ECHCG in %” value [3] was 90%. For the same compound, the “Post-emergence action against STEME in %” value [4] was 100%, the “Pre-emergence action against AMARE in %” value [7] was 100% and the “Post-emergence action against MATIN in %” value [5] was 90%. The “Pre-emergence action against STEME in %” value [6] was 100%.
With `CCOC(=O)COc1nn(-c2ccc(F)cc2F)c(-c2ccc(F)cc2F)c1Br` [I-088] the “Post-emergence action against AMARE in %” value [1] was 100%, the “Pre-emergence action against SETVI in %” value [2] was 90% and the “Post-emergence action against STEME in %” value [4] was 100%. For the same compound, the “Pre-emergence action against AMARE in %” value [7] was 90%, the “Post-emergence action against MATIN in %” value [5] was 90% and the “Pre-emergence action against STEME in %” value [6] was 100%.
For `CCOC(=O)COc1nn(-c2ccccc2F)c(-c2ccc(F)c(F)c2)c1Cl` [I-131], the “Pre-emergence action against SETVI in %” value [2] was 100%, the “Pre-emergence action at 1280 g/ha against ECHCG in %” value [3] was 100% and the “Post-emergence action against STEME in %” value [4] was 90%. The “Pre-emergence action against AMARE in %” value [7] was 100% and the “Post-emergence action against MATIN in %” value [5] was 90%.
For `CCOC(=O)COc1nn(-c2ccccc2)c(-c2ccc(F)cc2F)c1Br` [I-085], the “Post-emergence action against AMARE in %” value [1] was 100%, the “Pre-emergence action against SETVI in %” value [2] was 100% and the “Pre-emergence action at 1280 g/ha against ECHCG in %” value [3] was 100%. The “Post-emergence action against STEME in %” value [4] was 100%, the “Pre-emergence action against AMARE in %” value [7] was 100% and the “Post-emergence action against MATIN in %” value [5] was 90%.
With `COC(=O)C(C)Oc1nn(-c2ccccc2)c(-c2ccc(F)cc2)c1Br` (stereo not shown) [I-132, Methyl 2-{[4-bromo-5-(4-fluorophenyl)-1-phenyl-1H-pyrazol-3-yl]oxy}propanoate] the “Pre-emergence action against SETVI in %” value [2] was 100%, the “Post-emergence action against STEME in %” value [4] was 100% and the “Pre-emergence action against AMARE in %” value [7] was 100%. The “Post-emergence action against MATIN in %” value [5] was 90% and the “Pre-emergence action against STEME in %” value [6] was 100%.
In the case of `CCOC(=O)COc1nn(-c2c(F)cccc2F)c(-c2ccc(F)c(F)c2)c1Br` [I-134], the “Post-emergence action against AMARE in %” value [1] is reported as 90%, the “Pre-emergence action against SETVI in %” value [2] is reported as 100% and the “Pre-emergence action at 1280 g/ha against ECHCG in %” value [3] is reported as 100%. The “Post-emergence action against STEME in %” value [4] was 100%, the “Pre-emergence action against AMARE in %” value [7] was 100% and the “Pre-emergence action against STEME in %” value [6] was 100%.
In the case of `COC(=O)COc1nn(-c2cccc(F)c2)c(-c2ccccc2)c1Br` [I-114], the “Post-emergence action against AMARE in %” value [1] is reported as 100%, the “Pre-emergence action against SETVI in %” value [2] is reported as 100% and the “Pre-emergence action at 1280 g/ha against ECHCG in %” value [3] is reported as 90%. The “Pre-emergence action against AMARE in %” value [7] was 100%, the “Post-emergence action against MATIN in %” value [5] was 90% and the “Pre-emergence action against STEME in %” value [6] was 100%.
`O=C(COc1nn(-c2ccc(F)cc2)c(-c2cccc(F)c2)c1Cl)NC1CC1` [III-024] was tested, and the “Pre-emergence action against SETVI in %” value [2] was 100%, the “Pre-emergence action at 1280 g/ha against ECHCG in %” value [3] was 90% and the “Pre-emergence action against AMARE in %” value [7] was 100%. For the same compound, the “Pre-emergence action against STEME in %” value [6] was 100%.
For `COC(=O)C(C)Oc1nn(-c2ccccc2F)c(-c2ccc(F)c(F)c2)c1Br` (stereo not shown) [I-170], the “Post-emergence action against AMARE in %” value [1] was 90%, the “Pre-emergence action against SETVI in %” value [2] was 100% and the “Post-emergence action against STEME in %” value [4] was 100%. For the same compound, the “Pre-emergence action against AMARE in %” value [7] was 100% and the “Pre-emergence action against STEME in %” value [6] was 100%.
In the case of `CC(Oc1nn(-c2ccccc2F)c(-c2ccc(F)c(F)c2)c1Br)C(=O)O` (stereo not shown) [I-168], the “Pre-emergence action at 1280 g/ha against ECHCG in %” value [3] is reported as 90%, the “Post-emergence action against STEME in %” value [4] is reported as 100% and the “Pre-emergence action against AMARE in %” value [7] is reported as 100%. For the same compound, the “Post-emergence action against MATIN in %” value [5] was 90% and the “Pre-emergence action against STEME in %” value [6] was 100%.
With `CCOC(=O)COc1nn(-c2c(F)cccc2F)c(-c2ccc(F)c(F)c2)c1Cl` [I-142] the “Pre-emergence action against SETVI in %” value [2] was 100%, the “Pre-emergence action at 1280 g/ha against ECHCG in %” value [3] was 100% and the “Post-emergence action against STEME in %” value [4] was 100%. For the same compound, the “Pre-emergence action against AMARE in %” value [7] was 100%, the “Post-emergence action against MATIN in %” value [5] was 90% and the “Pre-emergence action against STEME in %” value [6] was 100%.
In the case of `COC(=O)C(C)Oc1nn(-c2ccccc2)c(-c2ccccc2F)c1Cl` (stereo not shown) [I-166], the “Post-emergence action against AMARE in %” value [1] is reported as 100%, the “Pre-emergence action against SETVI in %” value [2] is reported as 90% and the “Pre-emergence action against AMARE in %” value [7] is reported as 90%. For the same compound, the “Post-emergence action against MATIN in %” value [5] was 100% and the “Pre-emergence action against STEME in %” value [6] was 90%.
